We go through 54 molecules from the pKa sets of Baltruschat and Czodrowski (2020).

SMILES strings stand for the structures.

Usually pKa stands for the negative logarithm of the acid dissociation constant. For the molecule `N[C@H]1CC(=O)NC1=O`, for the setting “basic group”, the pKa worked out at 9.
For the molecule `OC1(c2ccco2)CN2CCC1CC2` (configuration not stated), the pKa (basic group) is 9.06. This pKa and that of the molecule before are within 0.2 log units of each other.
On to `CP(C)(=O)O`, for which the pKa (acidic group) came out at 3.08.
On to `C[C@@H](CN)c1ccccc1`, for which the pKa (basic group) is 9.94.
For the molecule `Nc1nc(N)nc([O-])n1`, the pKa (basic group) worked out at 9.4.
The molecule `CCNc1cccc2ccccc12` displayed a pKa (basic group) of 4.19.
Consider `Cn1cnc2c(O)[nH+]c(N)nc21`, for which the pKa (acidic group) is 3.07.
On the same count and under the same terms, under `Cc1ccc(C(=O)O)c(Cl)c1` stands 3.27; under `O=C1[C@H]2CCCC[C@H]2C(=O)N1O`, 6.
`CCC(O)CN(CC(O)CC)C(C)(C)C` (configuration not stated) displayed a pKa (basic group) of 9.6.
As to `NC(=O)C(CCCCC(=O)O)c1ccccc1` (configuration not stated), the pKa (acidic group) stood at 4.79.
Consider `Nc1cc(C[NH3+])ccc1Cl`, for which the pKa (basic group) turned out to be 3.71.
The molecule `O=C([O-])/C=C\c1ccccc1O` gave a pKa (acidic group) of 10.7.
Still for that read-out and setting: under `Oc1cccc2c1Nc1ccccc1N2` stands 10.9.
In the case of `Nc1cccc2cccnc12`, the pKa (basic group) is 4.01.
In the case of `CSc1ccccn1`, where the note is “basic group”, the pKa was 3.62.
Where the note is “basic group”, `O=C1C=CN2C[C@@H]3C[C@@H](CN4CCCC[C@H]34)[C@@H]2C1` gave a pKa of 9.25.
`COc1ccc(-c2nc3cnccc3n2C)c(OC)c1`: where the note is “basic group”, the pKa worked out at 6.16.
`[NH3+]C(CC(=O)[O-])C(=O)NC(CC(=O)O)C(=O)O` (configuration not stated) showed a pKa (acidic group) of 3.4.
Where the note is “basic group”, `Cn1c(=O)n(C)c2c(N)cccc21` yielded a pKa of 3.06.
The molecule `Cc1cc(O)n[nH]1` registered a pKa (acidic group) of 10.9.
For `[O-]c1cnnc2ccccc12`, the pKa (basic group) worked out at 9.27.
As for `C[C@@]12CC(=O)N[C@]1(CCC(=O)O)C(=O)NC2=O`, under “acidic group”, the pKa stood at 4.4.
For the setting “acidic group”, `Cc1cccc(C)c1NC(=S)c1ccccc1` registered a pKa of 10.8.
Molecule `O=C([O-])[C@@H](NCCN[C@@H](C(=O)[O-])c1ccccc1[O-])c1ccccc1[O-]` had a pKa (basic group) of 11.9.
The same measure, in the same setting: the result for `CCOCCn1c(CN2CC[NH+](CCCCn3cccn3)CC2)nc2ccccc21` reads 4.8; that for `CNCCc1ccccc1`, 10.2; that for `Cc1cccc(C=O)n1`, 4.55.
Same read-out and setting: under `CSc1ccc2ccccc2n1` stands 3.71.
For the setting “acidic group”, `O=Cc1ccccc1B(O)O` returned a pKa of 7.31.
Regarding `N#CCCN`, the pKa (basic group) stood at 7.75.
As to `COCCNc1ccc(C)cc1`, the pKa (basic group) stood at 4.64.
In turn, `CCOc1ccc2[nH]c(C)nc2c1` registered a pKa (basic group) of 6.22.
In the case of `N#CC(C#N)=NNc1cccc(O)c1`, under “acidic group”, the pKa is 6.45.
Where the note is “basic group”, `CCCN1CCCCC1` showed a pKa of 10.4.
On to `CS(=O)c1ccc(O)cc1` (configuration not stated), for which the pKa (acidic group) was 8.28.
With `CCOC(=O)COc1ccc(C(=O)c2ccc(O)c(C[NH3+])c2)cc1`, the pKa (acidic group) came out at 7.34.
For `Cc1nc2cc(C(=O)[O-])ccc2[nH]1`, for the setting “basic group”, the pKa was found to be 6.
As for `Cc1ccc(C)c(O)c1`, the pKa (acidic group) came out at 10.4.
Where the note is “basic group”, `CN1C[C@@H](CO)C[C@H]2c3cccc4[nH]cc(c34)C[C@@H]21` came in with a pKa of 8.3.
For the molecule `C[NH+](C)Cc1cccc(NC(=O)/C=N/O)c1`, the pKa (acidic group) is 8.28.
On to `Cc1cnc2c(O)cccc2c1`, for which the pKa came out at 9.75 (acidic group) and 4.93 (basic group).
Take `Sc1cnc2ccccc2c1`: the pKa by setting is: (acidic group) 6.13; (basic group) 2.33.
In turn, `N#CCC[n+]1cccc(C(N)=O)c1.[Br-]` came in with a pKa (acidic group) of 13.2.
Consider `Nc1ccc2c(c1)Cc1cccc(O)c1-2`, for which the pKa (basic group) turned out to be 4.73.
`Nc1ccc(S(=O)(=O)Nc2nncs2)cc1` returned a pKa (acidic group) of 4.77 and a pKa (basic group) of 2.15.
Under “acidic group”, `CC(=O)c1ccccc1C(=O)O` gave a pKa of 4.15.
The same measure, in the same setting: under `Oc1ccc(Cl)c(Cl)c1` stands 8.58.
Under “basic group”, `CCN(CC)c1ncnc2[nH]ncc12` returned a pKa of 4.71.
`CSc1ncnc2nc[nH]c12`: for the setting “acidic group”, the pKa is 8.74.
In turn, `N=C1CCCC1` registered a pKa (basic group) of 8.95.
Take `COCC(C)CN(C)C` (configuration not stated): the pKa (basic group) is 9.69.
In the case of `O=C1C=C(S(=O)(=O)[O-])c2cn[nH]c2/C1=N\O`, the pKa (acidic group) is 5.85.
As to `Cc1[nH+]c2cc(N)ccc2n1C`, the pKa (basic group) is 3.38.
